Here are results for two molecules from patent US11324762B2, “Deuterated derivatives of psilocybin and uses thereof” (Lennham Pharmaceuticals, Inc., priority 2020, dated 2022).

Structures are written as SMILES.

Assay type in all cases: in vitro ADME
For series [1], the target named is T1, human MAO-A (Homo sapiens, UniProt P21397).
T1 sequence (P21397 1-527): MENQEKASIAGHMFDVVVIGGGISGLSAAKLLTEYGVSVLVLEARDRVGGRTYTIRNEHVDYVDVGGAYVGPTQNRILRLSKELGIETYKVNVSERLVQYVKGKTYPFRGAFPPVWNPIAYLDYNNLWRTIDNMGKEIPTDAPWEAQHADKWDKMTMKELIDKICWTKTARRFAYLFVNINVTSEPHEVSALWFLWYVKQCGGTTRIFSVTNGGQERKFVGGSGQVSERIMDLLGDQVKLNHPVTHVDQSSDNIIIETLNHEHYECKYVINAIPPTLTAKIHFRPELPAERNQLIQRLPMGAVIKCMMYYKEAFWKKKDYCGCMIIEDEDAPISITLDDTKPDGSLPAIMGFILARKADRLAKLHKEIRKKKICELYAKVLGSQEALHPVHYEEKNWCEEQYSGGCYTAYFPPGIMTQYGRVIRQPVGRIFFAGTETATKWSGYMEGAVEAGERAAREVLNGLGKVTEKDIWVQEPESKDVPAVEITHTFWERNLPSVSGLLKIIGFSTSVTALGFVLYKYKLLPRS
As to the kind of experiment: metabolism of psilocin and d10-psilocin by human MAO-A (Example 3). Conditions: 0.2 μM, protein 1 mg/ml, 0-30 min, FIG. 2. The method, then:
A study was conducted to assess the metabolism of psilocin and d10-psilocin (the compound of Formula (IB-1)) by human MAO-A under the conditions set forth in Table 3.

The subject of another series is human hepatocytes. As to the kind of experiment: metabolic stability and metabolite formation in human hepatocytes. Conditions: 1 μM, 60 min. As to the method: (§1) A study was conducted to assess the metabolic stability and metabolite formulation of psilocin and d10-psilocin (the compound of Formula (IB-1)) in human hepatocytes under the conditions set forth in Table 1.

Assay in series [2]: as above
As to conditions: 1.0 million viable cells/ml, 37° C., 0-60 min. As to the method: as §1

In series [3] the target is T1, human MAO-A. As to the kind of experiment: metabolism of psilocin by human MAO-A (Example 2). Conditions: 0.2 and 2 μM, protein 0.03-1 mg/ml, 0-30 min, FIGS. 1A & 1B.

Consider `[2H]C([2H])([2H])N(C([2H])([2H])[2H])C([2H])([2H])C([2H])([2H])c1c[nH]c2cccc(O)c12` [d10-psilocin], for which the “rate of metabolism by human MAO-A compared with psilocin” value on human MAO-A [1] is listed as “metabolized more slowly by human MAO-A than psilocin”. Also, in the series with human hepatocytes, the “metabolite 4-hydroxy-indole-3-acetic acid after 60-minute incubation” value is “undetected” and the “parent remained after the 60-minute incubation” value is on record as “approximately 84%”. Besides, in series [2], the half-life at 1 μM came to 4.97 h.

As to `CN(C)CCc1c[nH]c2cccc(O)c12` [psilocin, 4-hydroxy-N,N-dimethyltryptamine], the “metabolism by human MAO-A” value on human MAO-A [3] is “metabolized by human MAO-A”. The “parent remained after the 60-minute incubation” value with human hepatocytes is on record as “approximately 78%”. Besides, the half-life at 1 μM in series [2] is 2.97 h.
